# “Also recorded” adds a separate entry of the source.
# Columns and labels:
# [1] = test system: osteoclast bone resorption; test: pit assay (bone resorption); assay type: cell-based, mouse; conditions: for bone resorption: dentin slices, 5–7 days
# Src (Y416) = test: IB of Src (Y416) phosphorylation in BMMs / osteoclasts; assay type: cell-based, mouse; conditions: for Src phosphorylation: Kp-10 20 min; for phosphorylation of Src (Y416): indicated dose of Kp-10 for 1 h; for phosphorylation of Src: Kp-10 1 h
# Procedure: Fig. 1 Kp-10 /Gpr54 governs osteoclasts formation and bone resorption mainly via suppression of Src phosphorylation. a–d IB analysis of whole cell lysates (WCL) derived from BMMs isolated from eight-week-old wild-type (WT) and Gpr54^−/− mice. BMMs were starved in serum-free α-MEM for 4 h and then treated with 100 ng/mL RANKL for different time (a) and quantification of protein levels (b), incubated with indicated dose of Kp-10 for 1 h (c) and quantification of protein levels (d). e–i BMMs isolated from eight-week-old WT and Gpr54^−/− mice were stimulated with M-CSF (10 ng/ml) and RANKL (50 ng/ml) for 5–7 days. Representative TRAP staining images are shown. Scale bar, 250 µm (e) and the number of osteoclasts/well was counted (f). Phalloidin staining of F-actin ring is shown. Scale bar, 250 µm, 50 µm (g), the area (h) and nuclei numbers (i) per actin ring were counted. j, k BMMs isolated from eight-week-old WT and Gpr54^−/− mice were cultured in vitro on dentin slices, and after incubation with M-CSF (10 ng/ml) and RANKL (50 ng/ml) for 5–7 days, the pits formed by osteoclast absorption activity were scanned by confocal microscopy (x, y, and z sections). Scale bar, 125 µm (j), and pits depth were quantified by confocal microscopy (k). Data represent means ± SEM. P values were determined by two-way ANOVA analysis (b), one-way ANOVA analysis (d, f, k), or two-tailed Student’s t-test (h, i), Representative results were obtained from at least three independent experiments. Source data are provided as a Source Data file.
# (§1) Whole-cell proteins were extracted using 1x RIPA buffer (25 mM Tris, pH7.5, 150 mM NaCl, 0.5% Sodium deoxycholate, 1% Triton-X-100) supplemented with protease inhibitors (Complete Mini, Roche) and phosphatase inhibitors (phosphatase inhibitor cocktail set I and II, Calbiochem). Immunoprecipitation and immunoblotting with indicated antibodies were performed as described in Supplementary Table 1. Image Jsoftware (V1.52) was used for quantification analysis. Uncropped and unprocessed blots are presented in the Supplementary Information file.
# Supplementary Fig. 1 a, b IB analysis of whole cell lysates (WCL) derived from BMMs isolated from eight-week-old wild-type (WT) and Gpr54 ^-/- mice. BMMs were starved in serum-free α-MEM for 4 hours and then treated with indicated doses of Kp-10 for 1 hour and followed by the addition of 50 ng/mL M-CSF, 100 ng/mL RANKL for another 30 minutes (a) and quantification of protein levels (b). c, d Elisa assay showing Kisspeptins derived from the process of osteoblast or osteoclast differentiation in vitro. Kisspeptins normalization was based on the same number of MSCs, BMMs which were seeded on the plates before differentiation stimulation (c), and serum Kisspeptins from Sham (n=8) and OVX (n=7) mice (d). Representative results were obtained from at least three independent experiments. Error bars are ± SEM. P-values were determined by one-way ANOVA analysis (a) or two-tailed Student’s t-test (b). *P <0.05, ***P <0.001, ****P <0.0001. Representative results were obtained from at least three independent experiments. Source data are provided as a Source Data file.
# [2] = test system: DUSP18 / GPR54 interaction; test: Co-IP: interaction of DUSP18 with GPR54 in transfected 293T cells; assay type: cell-based, human; conditions: 293T cells transfected with DUSP18-HA and GPR54-Flag, Kp-10 (10 nM) 20 min
# Procedure: Data represent means ± SEM. P values were determined by one-way ANOVA analysis (b, c, e, g, i, k). Representative results were obtained from at least three independent experiments. Source data are provided as a Source Data file.
# as §1
# Supplementary Fig. 6 a, b IB and quantification of protein levels analysis. […] Error bars are ± SEM. P-values were determined by two-tailed Student’s t-test (b, e) or by one-way ANOVA analysis (h, j). *P <0.05, **P <0.01, ***P <0.001, ****P <0.0001. Representative results were observed from at least three independent experiments. Source data are provided as a Source Data file.
# Dusp18 expression = test: WB of Dusp18 protein expression in RAW264.7 cells; assay type: cell-based, mouse
# From the text: Anti-Flag IP of lysates derived from 293 T cells transfected with GPR54-flag and Src-HA constructs (d) and quantification results (e). Anti-Flag IP of lysates derived from 293 T cells transfected with GPR54-flag and DUSP18-HA constructs (f) and quantification results (g). Anti-Flag IP of lysates derived from 293 T cells transfected with Src-HA, and DUSP18-flag constructs (h) and quantification results (i). j, k IB analysis of lysates derived from WT BMMs and Gq/11 KO BMMs with or without Kp-10 treatment for 1 h (j) and quantification of results (k). l Working model of Kp-10 /Gpr54 mediated Src dephosphorylation. […] However, both active Src and DUSP18 were recruited by GPR54 through the PR motif in GPR54 CT along with the increase of Kp-10 dose (1, 10 nM). […] Data represent means ± SEM. P values were determined by one-way ANOVA analysis (b, c, e, g, i, k). Representative results were obtained from at least three independent experiments. Source data are provided as a Source Data file.
# as §1
# Supplementary Fig. 7 a-b IB and quantification of Dusp18 protein level induced by indicated dose of Kp-10 for 1 hour in RAW264.7 cells (a) and quantification of protein levels (b) or induced by Kp-10 (1nM) for 1 hour in RAW264.7 transfected with ERK1/2 siRNA. Error bars are ± SEM. P-values were determined by one-way ANOVA analysis (b). ****P <0.0001. “ns” means no significant difference. Representative results were observed from at least three independent experiments. Source data are provided as a Source Data file.
# [3] = test system: Dusp18 / Gpr54 interaction; test: Co-IP: interaction of Dusp18 with Gpr54 in RAW264.7 cells; assay type: cell-based, mouse
# Procedure: Beads were analyzed by phosphatase activity assay (a), mass spectrometry assay (b), IB analysis (c) and quantification of protein levels (d). e, f Protein co-localization was analyzed by IF staining in primary pre-osteoclast with 10 nM Kp-10 treatment for 20 min. […] Scale bar, 50 µm. g, h binding affinity was measured by SPR binding analysis. […] Data represent means ± SEM. P values were determined by one-way ANOVA analysis (a, d, j, l) or two-tailed Student’s t-test (f). Representative results were obtained from at least three independent experiments. Source data are provided as a Source Data file.
# as §1
substance,measurement,setting,value
Kisspeptin-10 [Kp-10],"bone resorption (pit formation, pit depth)",[1]; Dusp18 WT osteoclasts,bone resorption was suppressed
same,bone resorption,[1]; Gpr54-WT osteoclasts,suppressed bone resorption
same,bone resorption,[1]; Gpr54 knockout osteoclasts,did not have a significant effect
same,"Src phosphorylation, 10 nM",Src (Y416); 10 nM Kp-10,more obviously blocked
same,Src phosphorylation,Src (Y416); Dusp18-depleted BMMs,failed to do so
same,phosphorylation of Src (Y416),Src (Y416); Gpr54 WT osteoclasts/BMMs,effectively reduced the phosphorylation of Src (Y416)
same,phosphorylation of Src (Y416),Src (Y416); Gpr54 knockout osteoclasts/BMMs,failed to inhibit Src (Y416) phosphorylation
same,phosphorylation of Src,Src (Y416); Gq/11 KO BMMs,failed to have a significant effect
same,phosphorylation of Src,Src (Y416); WT BMMs (Gq/11 experiment),inhibited the phosphorylation of Src
same,Src phosphorylation,Src (Y416); WT pre-osteoclasts/BMMs (Dusp18 experiment),blocked Src phosphorylation
same,interaction of DUSP18 with GPR54,[2],dose-dependently induced the interaction
same,protein level of Dusp18 upon ERK1/2 siRNA,"Dusp18 expression; RAW264.7, ERK1/2 siRNA, Kp-10 (1 nM) 1 h",cannot be obviously up-regulated
same,"expression of Dusp18 (protein), 10 nM","Dusp18 expression; RAW264.7, Kp-10 10 nM for 1 h",not by 10 nM Kp-10
same,"expression of Dusp18 (protein), 0.1 and 1 nM","Dusp18 expression; RAW264.7, Kp-10 0.1, 1 nM for 1 h",obviously upregulated the expression of Dusp18; also recorded: induced the expression of Dusp18 obviously
same,"recruitment of Src and Dusp18 by Gpr54, 10 nM","[3]; 10 nM Kp-10, Co-IP and IF",more significantly recruited
same,interaction of Dusp18 with Gpr54,"[3]; RAW264.7 cells, indicated dose of Kp-10 for 20 min",dose-dependently induced the interaction of Dusp18 with Gpr54
